# Tests used:
# [1] = system: human neuroblastoma cells WAC 2; breast cancer cells MDA-MB-435; details: WAC 2 neuroblastoma cells; MDA-MB-435 breast cancer cells; Askoxylakis et al; read-out: Affinity (kD); cited from earlier work
# [2] = biological target: Glucose-regulated protein 78 (GRP78) (Homo sapiens, UniProt P11021); details: target GRP78; Arap et al, 2004; read-out: Affinity (kD); cited from earlier work
# FGF receptor = details: target FGF receptor; if multivalent; Maruta et al, 2002; read-out: Affinity (kD); cited from earlier work
# EGFRvIII = EGFRvIII (Homo sapiens, UniProt P00533, DELINS30-297G); details: target EGFRvIII; Campa et al 2002; read-out: Affinity (kD); cited from earlier work
# EGFR = EGFR (Homo sapiens, UniProt P00533); details: target EGFR; Li et al 2005; read-out: Affinity (kD); cited from earlier work
# Her-2 (human ErbB-2) = Her-2 (human ErbB-2) (Homo sapiens, UniProt P04626); details: target Her-2 (human ErbB-2); Karasseva et al, 2002; read-out: Affinity (kD); cited from earlier work
# hepatoma cells = experiment: Hepatoma solid tumor model in strain 13 guinea pigs: tumor weight and macrophage infiltration; type: in vivo, guinea pig; details: compared to control Group 1 (PBS); for numbers of esterase-positive cells in tumors (macrophage infiltration): 1 mg per animal ip on day 5, sacrifice on day 15, non-specific esterase stain; for mean tumor weight: 1 mg per animal ip on day 5, tumors excised and weighed on day 15
# Method: Hepatoma cells are propagated by ip (intraperitoneal) passage in weanling strain 13 male guinea pigs (NIH). Single-cell suspensions are prepared by enzymatic digestion as described. Strain 13 male guinea pigs are injected ip with a suspension of approx. 2*10^6 hepatoma cells to produce solid tumors (day 1). Animals are grouped into 4 groups (six animals each) and are given ip injections on day 5: Phosphate-buffered saline (PBS) (Group 1; control); 1 mg peptide NH2-AWYPLPP-COOH per animal (Group 2; binder only); 1 mg peptide fMLP-COOH per animal (Group 3; effector only); 1 mg compound fMLPK-(NH2-AWYPLPP)-GGGK-(NH2-AWYPLPP)-1-COOH per animal (Group 4). Animals are sacrificed on day 15 and tumors are excised and weighed. In addition macrophage infiltration of tumors is evaluated. Therefore, tumors are fixed in phosphate-buffered formalin and embedded in paraffin blocks. Sections (5 μm) are cut and stained for non-specific esterase activity. Esterase-positive cells are quantified with an image analyser (Optomax, Inc.).
# Sequence of Glucose-regulated protein 78 (GRP78) (P11021 19-654, species assumed): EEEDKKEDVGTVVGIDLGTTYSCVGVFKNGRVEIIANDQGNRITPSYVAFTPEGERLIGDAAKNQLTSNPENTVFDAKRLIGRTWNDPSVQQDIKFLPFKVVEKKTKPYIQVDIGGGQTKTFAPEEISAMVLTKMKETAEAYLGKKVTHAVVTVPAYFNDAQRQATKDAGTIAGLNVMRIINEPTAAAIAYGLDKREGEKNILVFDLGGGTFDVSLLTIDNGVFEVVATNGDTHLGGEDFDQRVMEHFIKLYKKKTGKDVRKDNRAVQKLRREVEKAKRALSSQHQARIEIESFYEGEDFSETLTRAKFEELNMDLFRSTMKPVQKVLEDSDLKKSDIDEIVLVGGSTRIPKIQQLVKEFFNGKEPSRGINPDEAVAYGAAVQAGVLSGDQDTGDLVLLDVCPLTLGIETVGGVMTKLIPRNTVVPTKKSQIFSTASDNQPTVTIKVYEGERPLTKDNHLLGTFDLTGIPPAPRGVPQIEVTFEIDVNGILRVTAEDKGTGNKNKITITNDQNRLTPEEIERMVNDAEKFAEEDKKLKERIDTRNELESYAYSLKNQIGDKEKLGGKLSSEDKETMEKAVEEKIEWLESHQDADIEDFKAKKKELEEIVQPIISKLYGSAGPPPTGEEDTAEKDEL
substance,measurement,setting,value
VPWMEPAYQRFL,Kd,[1],600 nM
WIFPWIQL,Kd,[2],5 to 50 nM
MQLPLAT,Kd,FGF receptor,0.25 nM
WDLAWMFRLPVG,Kd,[2],5 to 50 nM
YHWYGYTPQNVI,Kd,EGFRvIII,30 nM
same,Kd,EGFR,22 nM
KCCYSL,Kd,Her-2 (human ErbB-2),30000 nM
fMLPK-(NH2-AWYPLPP)-GGGK-(NH2-AWYPLPP)-I-COOH [compound],numbers of esterase-positive cells in tumors (macrophage infiltration),hepatoma cells,significantly increased
same,mean tumor weight,hepatoma cells,significantly decreased
NH2-AWYPLPP-COOH (H-AWYPLPP-OH) [binder],numbers of esterase-positive cells in tumors (macrophage infiltration),hepatoma cells,comparable to Group 1
same,mean tumor weight,hepatoma cells,no or only marginal effect
fMLP-COOH [effector],numbers of esterase-positive cells in tumors (macrophage infiltration),hepatoma cells,slightly increased
same,mean tumor weight,hepatoma cells,no or only marginal effect

# From patent publication US8470963B2, “Multifunctional compounds for pharmaceutical purposes” (Sku Asset Management GmbH, priority 2006, dated 2013)
